The text below walks through data of patent US6770738B1, “Higher order structure and binding of peptide nucleic acids” (ISIS Pharmaceuticals, Inc., priority 1992, dated 2004).

For experiment [1], the system named is pTlO plasmid (dA10/dT10 insert) and corresponding plasmids linearized with CfrlOI. The experiment is described as follows: Site-specific S1 nuclease digestion of linearized plasmid complexed with PNA. The class given is biochemical. The following applies: 145 units S1 nuclease, room temperature; each PNA with its corresponding plasmid. As to the method: PNA H-T10-LysNH2 (SEQ ID NO:2) was synthesized as described in Example 1. A pTlO plasmid was prepared from the pUC19 plasmid by inserting the dA10/dT10 (SEQ ID NO:3) sequence into the BamHl site of the polylinker as per the method of Egholm, N et al., J.A.C.S. 1992 114:1895-1897. The pTlO plasmid was linearized with CfrlOI restriction enzyme in the unique site. To form complex with the PNA, about0.1 μg of the linearized plasmid was incubated with 2 o.u./ml of PNA in 3 μl of the TE buffer (10 mM Tris-HCl; 1 mM EDTA, pH 7.4) at 37° C. To perform the S1 nuclease reaction, 10 μl of Na-Acetate buffer (33 mM NaAc; 50 mM NaCl; 10 mM ZnSO4; 0.5% of glycerol, pH 4.6) and 145 units of S1 nuclease (Sigma) were added and incubated for various time periods at room temperature. The reaction was terminated by adding 1 μl of 0.5 M EDTA and cooling to −20° C. Electrophoresis was performed in 1% agarose gel in the TBE buffer with subsequent staining with ethidium bromide. The results of this example are shown in FIG. 1 wherein the size of the markers are shown as are the incubation time periods. In FIG. 8 Lane 1: control—preincubation of DNA with PNA was performed under conditions unfavorable for complex formation (200 mM of NaCl). Lane 2: the reference band obtained by digestion with BamHI restriction enzyme. Lane 3: reference bands obtained by the digestion with Bgll restriction enzyme. […]

The subject of experiment [2] is pA98 plasmid relaxed circles (rcDNA). Put plainly: Unwinding of closed circular DNA with PNA. It is filed as binding. As to the method: Relaxed circular DNA was prepared by treating ordinary supercoiled plasmid DNA with an extract containing DNA topoisomerase I, as described by V. I. Lyamichev, et. al., J. Biomolec. Struct. Dynamics, 3, 327-338 (1985). DNA-PNA complexes were obtained by incubation of 1-2 μg of DNA in 5-20 μL TE with 0.4 optical units./mL of PNA for 4 hours at 20-22° C. This corresponded to about 10 times molar excess of PNA to its potential binding sites. Agarose (1.5%) gel electrophoresis was performed in the TAE buffer containing 1 μg/mL of chloroquine at 10° C. for 15 hours at 1.5 V/cm. Tw—dimensional gel electrophoresis was preformed in the first direction (from top to bottom) in the TAE buffer and in the second direction (from left to right) in the same buffer with addition of 1 μg/mL of chloroquine.
In this example, the efficiency of PNA T10 incorporating into the DNA duplex and displacing the DNA T-strand in solution was shown by unwinding of closed circular DNA by PNA. The pA98 plasaid (Example 16) was prepared in the form of relaxed circles (rcDNA). It was expected that complexing with PHA would unwind about 10 turns of the DNA duplex. Because of topological constraints (the two strands in rcDNA were closed and therefore topologically linked), this unwinding would make the rcDNA molecules behave as if they were positively supercoiled by 10 superturns. […]

Experiment [3] concerns Taq DNA polymerase primer extension on pAIOKS. Put plainly: Inhibition of Taq DNA polymerase primer extension by PNA. The class given is biochemical. The settings on record: pre-formed complex, 1 ug PNA. As to the method: A mixture of 100 500 ng Pvull cleaved plasmid pAIOKS, 0.1 ug M13 reverse primer and 1 ug of PNA T10-LysNH2(SEQ ID NO:2) in 10 ul buffer ([…], pH 8.3, 50 mM KCl, 1.5 mM MgCl2, 0.1 mg/ml gelatine) was incubated for 5 min at 90° C. and then for 60 min at 37° C. Subsequently, 1 U of Taq polymerase, 1 ul dCTP (100 uM), dGTP (100 uM), dTTP (100 uM) and ^32 P-dATP (1 uCi) were added and the incubation continued for 5 min at 20° C. Following the addition of 2 ul dATP, dCTP, dGTP, dTTP (1 mM each), the sample was incubated for 15 min at 60° C. The DNA was precipitated with ethanol and the samples treated as described for Example 18. The results are shown in FIG. 19: Lane 1: pTIOKS was cut with PvuII and no PNA was present. Lane 2: same as lane one with PNA present. Lane 3: no PNA and PTIOKS was cut with BamHl.

Turning to H-T10LysNH2 [PNA H-T10-LysNH2], the “S1 nuclease cutting of linearized plasmid complexed with PNA” value in experiment [1] is listed as “a significant fraction of DNA was cut”. Besides, in experiment [2] (NaCl), the “salt concentration tolerated by complex formed at low salt” value was “at least 500 mM”. For the same substance, the “turns of the double helix released upon binding of PNA” value in experiment [2] (TE buffer, two-dimensional gel electrophoresis) was 8-10 turns. Further, the “primer extension product of Taq DNA polymerase” value in experiment [3] is listed as “a product corresponding in length to blockage at the PNA was produced”.
